ChEMBL document CHEMBL1125482, “Pharmacokinetics of catechol cephalosporins. The effect of incorporating substituents into the catechol moiety on pharmacokinetics in a marmoset model” (J Med Chem, 1992)
≈ marks a conversion by molar mass, not a printed value.

Legend:
[1] = in vivo; details: callithrix, serum, iv
Description: Serum T1/2 in marmosets (IV dose)

[2] = species on record: Canis familiaris; details: dog, in vivo, iv
[3] = physchem
Description: Dissociation constant (pKa)

[4] = species on record: Homo sapiens; experiment: Compound was tested for serum protein binding in human blood; assay type: functional
[5] = Urinary recovery in marmosets (IV dose); assay type: ADME, organism-based; details: callithrix, urine, read-out: Recovery
[6] = test system: Pseudomonas aeruginosa; experiment: microbe, parasite or virus in culture
Description: Compound was tested for antimicrobial activity against Pseudomonas aeruginosa PU21 strain

[7] = test system: Pseudomonas aeruginosa; experiment: microbe, parasite or virus in culture; remark: listed apart in the source
Description: Compound was tested for antimicrobial activity against Pseudomonas aeruginosa constitutive derepressed type I beta-lactamase producer (18SH) strain

[8] = test system: Escherichia coli; experiment: microbe, parasite or virus in culture
Description: Compound was tested for antimicrobial activity against Escherichia coli DC0 strain (parent organism)

[9] = test system: Staphylococcus aureus; experiment: microbe, parasite or virus in culture
Description: Compound was tested for antimicrobial activity against Staphylococcus aureus penicillin sensitive Staphylococcus aureus (147N) strain

[10] = test system: Enterobacter cloacae; experiment: microbe, parasite or virus in culture
Description: Compound was tested for antimicrobial activity against Enterobacter cloacae constitutive derepressed type I beta-lactamase producer (P99+) strain

[11] = test system: Escherichia coli; experiment: microbe, parasite or virus in culture; remark: listed apart in the source
Description: Compound was tested for antimicrobial activity against Escherichia coli DC2 strain (permeability mutant)

[12] = test system: Staphylococcus aureus; experiment: microbe, parasite or virus in culture; remark: listed apart in the source
Description: Compound was tested for antimicrobial activity against Staphylococcus aureus Oxford strain

[13] = test system: Enterobacter cloacae; experiment: microbe, parasite or virus in culture; remark: listed apart in the source
Description: Compound was tested for antimicrobial activity against Enterobacter cloacae inducible type I beta-lactamase producer (P99-) strain

SMILES	half-life [1] [h]	AUC [2] [mg/h/L]	pKa [3]	other results
CC(C)(O/N=C(\C(=O)N[C@@H]1C(=O)N2C(C(=O)O)=C(CNC(=O)Nc3cc(O)c(O)c(Br)c3)CS[C@H]12)c1csc(N)n1)C(=O)O	2.8	122.3		
CC(C)(O/N=C(\C(=O)N[C@@H]1C(=O)N2C(C(=O)O)=C(CNC(=O)c3cc(O)c(O)c(F)c3)CS[C@H]12)c1csc(N)n1)C(=O)O	3.5	116.8	7.45	
CC(C)(O/N=C(\C(=O)N[C@@H]1C(=O)N2C(C(=O)O)=C(CNC(=O)c3cc(O)c(O)cc3Br)CS[C@H]12)c1csc(N)n1)C(=O)O	0.9	13.4	8.1	
CCN(CC1=C(C(=O)O)N2C(=O)[C@@H](NC(=O)/C(=N\OC(C)(C)C(=O)O)c3csc(N)n3)[C@H]2SC1)C(=O)c1cc(O)c(O)cc1F	0.6	7.6	8.25	
CCn1nc(C(=O)NCC2=C(C(=O)O)N3C(=O)[C@@H](NC(=O)/C(=N\OC(C)(C)C(=O)O)c4csc(N)n4)[C@H]3SC2)c(=O)c2cc(O)c(O)cc21	2.2	129.8	6.5	Activity [4]: 97.8%; dose excreted [5]: 26.9%
CC(C)(O/N=C(\C(=O)N[C@@H]1C(=O)N2C(C(=O)O)=C(CNC(=O)/C=C/c3cc(O)c(O)cc3Br)CS[C@H]12)c1csc(N)n1)C(=O)O	1	24.2		
CCn1cc(C(=O)NCC2=C(C(=O)O)N3C(=O)[C@@H](NC(=O)/C(=N\OC(C)(C)C(=O)O)c4csc(N)n4)[C@H]3SC2)c(=O)c2c(Cl)c(O)c(O)cc21	5.7	645.7	7	
CCN(CC1=C(C(=O)O)N2C(=O)[C@@H](NC(=O)/C(=N\OC(C)(C)C(=O)O)c3csc(N)n3)[C@H]2SC1)C(=O)c1cc(O)c(O)c(C#N)c1	1	41	5.8	
CC(C)(O/N=C(\C(=O)N[C@@H]1C(=O)N2C(C(=O)O)=C(CNC(=O)c3cc(O)c(O)c(O)c3)CS[C@H]12)c1csc(N)n1)C(=O)O	0.9	51.9	8.35	MIC [6]: 0.9 µg/mL (≈ 1.41 µM); MIC [7]: 8.1 µg/mL (≈ 12.7 µM)
CCN(CC1=C(C(=O)O)N2C(=O)[C@@H](NC(=O)/C(=N\OC(C)(C)C(=O)O)c3csc(N)n3)[C@H]2SC1)C(=O)c1cc(O)c(O)c(Br)c1	1	21.8	7.3	MIC [8]: 0.015 µg/mL (≈ 0.0206 µM); MIC [9]: 32 µg/mL (≈ 44 µM); MIC [6]: 0.03 µg/mL (≈ 0.0412 µM); MIC [7]: 0.06 µg/mL (≈ 0.0825 µM); MIC [10]: 1 µg/mL (≈ 1.37 µM); MIC [11]: 0.015 µg/mL (≈ 0.0206 µM); MIC [12]: 32 µg/mL (≈ 44 µM); MIC [13]: 0.25 µg/mL (≈ 0.344 µM)
CCO/N=C(\C(=O)N[C@@H]1C(=O)N2C(C(=O)O)=C(CNC(=O)c3cc(O)c(O)cc3Br)CS[C@H]12)c1csc(N)n1	0.35	2	6.9	
CC(C)(O/N=C(\C(=O)N[C@@H]1C(=O)N2C(C(=O)O)=C(CNC(=O)c3cc(O)c(O)c([N+](=O)[O-])c3)CS[C@H]12)c1csc(N)n1)C(=O)O	2.9	181.7	5.5	Activity [4]: 97.5%; dose excreted [5]: 47.3%
CC(C)(O/N=C(\C(=O)N[C@@H]1C(=O)N2C(C(=O)O)=C(CNC(=O)c3ccc(O)c(O)c3Cl)CS[C@H]12)c1csc(N)n1)C(=O)O	2.9	131	7.65	
CCN(CC1=C(C(=O)O)N2C(=O)[C@@H](NC(=O)/C(=N\OC(C)(C)C(=O)O)c3csc(N)n3)[C@H]2SC1)C(=O)c1cc(O)c(O)c([N+](=O)[O-])c1	1.6	49.2	5.8	
CCO/N=C(\C(=O)N[C@@H]1C(=O)N2C(C(=O)O)=C(CNC(=O)c3cc(O)c(O)c(Cl)c3)CS[C@H]12)c1csc(N)n1	1.3	57.6	6.9	
CC(C)(O/N=C(\C(=O)N[C@@H]1C(=O)N2C(C(=O)O)=C(COC(=O)c3cc(O)c(O)c(Br)c3)CS[C@H]12)c1csc(N)n1)C(=O)O	1.7	67.7	6.5	

SMILES	half-life [1] [h]	AUC [2] [mg/h/L]	pKa [3]	other results
CC(C)(O/N=C(\C(=O)N[C@@H]1C(=O)N2C(C(=O)O)=C(/C=C/c3cc(O)c(O)c(Br)c3)CS[C@H]12)c1csc(N)n1)C(=O)O	1.5	61.6	7.7	
CCN(CC1=C(C(=O)O)N2C(=O)[C@@H](NC(=O)/C(=N\OC(C)(C)C(=O)O)c3csc(N)n3)[C@H]2SC1)C(=O)c1cc(O)c(O)c(F)c1	0.5	10.9	7.85	
CCO/N=C(\C(=O)N[C@@H]1C(=O)N2C(C(=O)O)=C(CNC(=O)c3cc(O)c(O)c(C#N)c3)CS[C@H]12)c1csc(N)n1	1.2	107	5.5	
CCO/N=C(\C(=O)N[C@@H]1C(=O)N2C(C(=O)O)=C(CNC(=O)c3cc(Cl)c(O)c(O)c3Cl)CS[C@H]12)c1csc(N)n1	1.4	54.5	6.9	
CCO/N=C(\C(=O)N[C@@H]1C(=O)N2C(C(=O)O)=C(CNC(=O)c3cc(O)c(O)c([N+](=O)[O-])c3)CS[C@H]12)c1csc(N)n1	0.8	48.9	5.5	
CCO/N=C(\C(=O)N[C@@H]1C(=O)N2C(C(=O)O)=C(CNC(=O)c3cc(O)c(O)c(Br)c3)CS[C@H]12)c1csc(N)n1	0.7	17	6.9	MIC [8]: < 0.008 µg/mL; MIC [9]: 4 µg/mL (≈ 6.24 µM); MIC [6]: 0.06 µg/mL (≈ 0.0935 µM); MIC [7]: 4 µg/mL (≈ 6.24 µM); MIC [10]: 8 µg/mL (≈ 12.5 µM); MIC [12]: 2 µg/mL (≈ 3.12 µM); MIC [13]: 0.015 µg/mL (≈ 0.0234 µM)
CCN(CC1=C(C(=O)O)N2C(=O)[C@@H](NC(=O)/C(=N\OC(C)(C)C(=O)O)c3csc(N)n3)[C@H]2SC1)C(=O)c1cc(O)c(O)c(Cl)c1	0.9	16.4	7.4	
CCn1cc(C(=O)NCC2=C(C(=O)O)N3C(=O)[C@@H](NC(=O)/C(=N\OC(C)(C)C(=O)O)c4csc(N)n4)[C@H]3SC2)c(=O)c2cc(O)c(O)nc21	2.8	137.3	5.6	
CC(C)(O/N=C(\C(=O)N[C@@H]1C(=O)N2C(C(=O)O)=C(CNC(=O)Cc3cc(O)c(O)cc3Br)CS[C@H]12)c1csc(N)n1)C(=O)O		1.6		
CCO/N=C(\C(=O)N[C@@H]1C(=O)N2C(C(=O)O)=C(CNC(=O)c3ccc(O)c(O)c3)CS[C@H]12)c1csc(N)n1	0.8	4.3	8.5	MIC [8]: 0.06 µg/mL (≈ 0.107 µM); MIC [9]: 4 µg/mL (≈ 7.11 µM); MIC [6]: 0.25 µg/mL (≈ 0.444 µM); MIC [7]: 64 µg/mL (≈ 114 µM); MIC [10]: 64 µg/mL (≈ 114 µM); MIC [11]: 0.08 µg/mL (≈ 0.142 µM); MIC [12]: 2 µg/mL (≈ 3.56 µM); MIC [13]: 0.5 µg/mL (≈ 0.889 µM)
CC(C)(O/N=C(\C(=O)N[C@@H]1C(=O)N2C(C(=O)O)=C(CNC(=O)c3cc4ccc(O)c(O)c4oc3=O)CS[C@H]12)c1csc(N)n1)C(=O)O	3.95	243.9		Activity [4]: 99.6%; dose excreted [5]: 6.9%
CC(C)(O/N=C(\C(=O)N[C@@H]1C(=O)N2C(C(=O)O)=C(CNC(=O)c3cc(O)c(O)cc3F)CS[C@H]12)c1csc(N)n1)C(=O)O	1.6	78	7.8	
CCOC(=O)c1nc2cc(O)c(O)cc2nc1C(=O)NCC1=C(C(=O)O)N2C(=O)[C@@H](NC(=O)/C(=N\OC(C)(C)C(=O)O)c3csc(N)n3)[C@H]2SC1	4.6	287	6	
CC(C)(O/N=C(\C(=O)N[C@@H]1C(=O)N2C(C(=O)O)=C(CNCc3cc(O)c(O)c(Br)c3)CS[C@H]12)c1csc(N)n1)C(=O)O	0.7	4.4		
CCO/N=C(\C(=O)N[C@@H]1C(=O)N2C(C(=O)O)=C(CNC(=O)c3cc(O)c(O)c(F)c3)CS[C@H]12)c1csc(N)n1	0.65	25	7.4	
CO/N=C(\C(=O)N[C@@H]1C(=O)N2C(C(=O)O)=C(COC(C)=O)CS[C@H]12)c1csc(N)n1 [CEFOTAXIME]	0.5	46.7		
